According to PubChem BioAssay (NCI):
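How tested: cells in 96-well plates exposed to compound for 48 hours at five concentrations. GI50: concentration for 50% inhibition of growth. At the TGI there is no net growth.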

What was measured:
Assay in all cases: inhibition of tumour cell growth, NCI panel, 48 h
OVCAR-5 ovarian = tested on: OVCAR-5 ovarian
MOLT-4 leukemia = tested on: MOLT-4 leukemia
HCC-2998 colon = tested on: HCC-2998 colon
SK-MEL-2 melanoma = tested on: SK-MEL-2 melanoma
EKVX NSCLC = tested on: EKVX NSCLC
SK-MEL-28 melanoma = tested on: SK-MEL-28 melanoma
SK-OV-3 ovarian = tested on: SK-OV-3 ovarian
OVCAR-4 ovarian = tested on: OVCAR-4 ovarian
MDA-MB-435 = tested on: MDA-MB-435
ACHN renal = tested on: ACHN renal
A498 renal = tested on: A498 renal
SF-268 CNS = tested on: SF-268 CNS
TK-10 renal = tested on: TK-10 renal
NCI/ADR-RES ovarian = tested on: NCI/ADR-RES ovarian
OVCAR-8 ovarian = tested on: OVCAR-8 ovarian
HT29 colon = tested on: HT29 colon
OVCAR-3 ovarian = tested on: OVCAR-3 ovarian
HS 578T breast = tested on: HS 578T breast
SW-620 colon = tested on: SW-620 colon
786-0 renal = tested on: 786-0 renal
MALME-3M melanoma = tested on: MALME-3M melanoma
KM12 colon = tested on: KM12 colon
DU-145 prostate = tested on: DU-145 prostate
SR leukemia = tested on: SR leukemia
SNB-19 CNS = tested on: SNB-19 CNS
RXF 393 renal = tested on: RXF 393 renal
BT-549 breast = tested on: BT-549 breast
MDA-MB-231 breast = tested on: MDA-MB-231 breast
IGROV1 ovarian = tested on: IGROV1 ovarian

## CCCc1cc(=O)n2c(C(=O)Nc3ccccc3OC)c(C(=O)Nc3ccc(F)cc3)sc2n1
OVCAR-5 ovarian
  GI50: 69.3 µM
  TGI: > 160 µM
MOLT-4 leukemia
  GI50: 19.8 µM
  TGI: 57.3 µM
HCC-2998 colon
  GI50: 131 µM
  TGI: > 160 µM
SK-MEL-2 melanoma
  GI50: 7.53 µM
  TGI: 29.6 µM
EKVX NSCLC
  GI50: 30.7 µM
  TGI: > 160 µM
SK-MEL-28 melanoma
  GI50: 22 µM
  TGI: 61.8 µM
SK-OV-3 ovarian
  GI50: 22.2 µM
  TGI: 96.7 µM
OVCAR-4 ovarian
  GI50: 5.03 µM
  TGI: 15.3 µM
MDA-MB-435
  GI50: 36.5 µM
  TGI: > 160 µM
ACHN renal
  GI50: 5.11 µM
  TGI: 18.7 µM
A498 renal
  GI50: 34.3 µM
  TGI: 97.1 µM
SF-268 CNS
  GI50: 14.3 µM
  TGI: 38 µM
TK-10 renal
  GI50: 26 µM
  TGI: 64.3 µM
NCI/ADR-RES ovarian
  GI50: 39.2 µM
  TGI: > 160 µM
OVCAR-8 ovarian
  GI50: 5.67 µM
  TGI: 20.7 µM
HT29 colon
  GI50: 44.5 µM
  TGI: > 160 µM
OVCAR-3 ovarian
  GI50: 9.56 µM
  TGI: 34.1 µM
HS 578T breast
  GI50: 6.27 µM
  TGI: 25.6 µM
SW-620 colon
  GI50: 31 µM
  TGI: > 160 µM
786-0 renal
  GI50: 2.91 µM
  TGI: 10.2 µM
MALME-3M melanoma
  GI50: 59.5 µM
  TGI: > 160 µM
KM12 colon
  GI50: 49.8 µM
  TGI: > 160 µM
DU-145 prostate
  GI50: 13.3 µM
  TGI: 34.6 µM
SR leukemia
  GI50: 4.57 µM
  TGI: 25.3 µM
SNB-19 CNS
  GI50: 23.1 µM
  TGI: 68.5 µM
RXF 393 renal
  GI50: 5.14 µM
  TGI: 12.1 µM
BT-549 breast
  GI50: 31 µM
  TGI: 71.1 µM
MDA-MB-231 breast
  GI50: 3.29 µM
  TGI: 11.2 µM
IGROV1 ovarian
  GI50: 21.5 µM
